Experimental data: patent US6979686B1, “Substituted pyrazoles as p38 kinase inhibitors” (Pharmacia Corporation, priority 2001, dated 2005)
Where two headings read alike, the source gives them in different places. Each block holds one compound with its values, some of them ahead of it.

How the values were obtained:
[1] = target: T1, human p38 kinase alpha (Homo sapiens, UniProt Q16539); test: p38 kinase in vitro assay, phosphorylation of biotinylated PHAS-I with 32P-ATP; format: biochemical; details: for IC50: read-out: P38 alpha kinase IC50
T1 construct: GST (N, cleaved yes); made in house; host or cells: E. coli DH10B
T1 sequence (Q16539 whole entry): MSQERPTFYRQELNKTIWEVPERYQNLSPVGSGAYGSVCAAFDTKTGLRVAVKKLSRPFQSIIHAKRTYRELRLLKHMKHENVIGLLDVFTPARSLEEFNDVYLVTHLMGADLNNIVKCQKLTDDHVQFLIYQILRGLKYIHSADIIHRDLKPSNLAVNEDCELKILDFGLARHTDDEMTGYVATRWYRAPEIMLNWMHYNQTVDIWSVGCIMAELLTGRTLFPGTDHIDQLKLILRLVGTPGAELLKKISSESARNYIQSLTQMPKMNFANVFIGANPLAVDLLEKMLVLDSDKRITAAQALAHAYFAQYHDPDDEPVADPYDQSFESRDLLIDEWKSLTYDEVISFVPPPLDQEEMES

[2] = test system: TNF-α, U937 human histiocytic lymphoma cell line; test: LPS stimulation of TNF production by U937 cells; format: cell-based; details: for inhibition at 1 µM: U-937, @ 1.0 uM, read-out: U937 Cell % inhib @ conc.; for IC50: read-out: U937 Cell IC50; for U937 Cell % inhib @ conc.: @ 10.0 uM
Description: Maintenance and Differentiation of the U937 Human Histiocytic Lymphoma Cell Line:
Fifty million cells in 100 ml media were induced to terminal monocytic differentiation by 24 hour incubation with 20 ng/ml phorbol 12-myristate 13-acetate (Sigma). The cells were washed by centrifugation (200×g for 5 min) and resuspended in 100 ml fresh medium. After 24-48 hours, the cells were harvested, centrifuged, and resuspended in culture medium at 2 million cells/ml.
LPS Stimulation of TNF Production by U937 Cells:
Compounds were prepared as 10 mM stock solutions in DMSO and diluted in culture medium to yield a final DMSO concentration of 0.1% in the cell assay. LPS (E coli, 100 ng/ml final concentration) was then added at a volume of 0.02 ml. After 4 hour incubation at 37° C., the amount of TNF-α released in the culture medium was quantitated by ELISA. Inhibitory potency is expressed as IC50 (μM).
In vitro whole cell assay for measuring the ability of the compounds to inhibit TNF production in human U937 cells stimulated with LPS are shown in the column identified as: • “U937 Cell IC50, uM or % inhib @ conc., (uM)”

[3] = in vitro P38-alpha kinase inhibition
[4] = Homo sapiens, TNF production, U937 cells stimulated with LPS
[5] = Homo sapiens, TNF production, LPS-stimulated U937 cells
[6] = Homo sapiens, U-937, TNF production, human U937 cells stimulated with LPS
[7] = Homo sapiens, U-937, TNF production in human U937 cells stimulated with LPS
[8] = TNF production, LPS-stimulated U937 cells

IC50 [1, 3]: 400 nM
SMILES: O=C(NC(Cc1ccccc1)c1[nH]nc(-c2ccc(F)cc2)c1-c1ccncc1)c1ccccc1C(F)(F)F (stereo not shown) [Example B-0844]
inhibition at 1 µM [2, 4]: 25%

IC50 [1, 3]: 1380 nM
SMILES: CNC(=O)CCC(NC(=O)C1CC1)c1[nH]nc(-c2ccc(F)cc2)c1-c1ccncc1 (stereo not shown) [Example B-0866]
inhibition at 1 µM [2, 4]: 28%

IC50 ([1]; in vitro P38-alpha kinase): 120 nM
SMILES: CN(C)c1ccc(CNC(=O)NCCCc2[nH]nc(-c3ccc(F)cc3)c2-c2ccncc2)cc1 [Example B-1301]
inhibition at 1 µM [2, 5]: 15%

IC50 ([1]; in vitro P38-alpha kinase): 60 nM
IC50 [2, 6]: 570 nM
SMILES: O=C(c1ccc(Cl)cc1)N1CCC(c2[nH]nc(-c3ccc(F)cc3)c2-c2ccncc2)CC1 [Example B-1389]

IC50 [1, 3]: 440 nM
IC50 [2, 7]: 870 nM
SMILES: CC(=O)OC(C)(C)C(=O)NC(C)c1[nH]nc(-c2ccc(F)cc2)c1-c1ccncc1 (stereo not shown) [Example B-0535]

IC50 ([1]; in vitro P38-alpha kinase): 2100 nM
SMILES: N#Cc1ccc(S(=O)(=O)N2CCC(c3[nH]nc(-c4ccc(F)cc4)c3-c3ccncc3)CC2)cc1 [Example B-1475]
inhibition at 1 µM [2, 5]: 24%

P38 alpha kinase % inhib @ conc. ([1]; @ 10.0 uM): 32.0% @
IC50 ([2]; TNF production, human U937 cells stimulated with LPS): > 10000 nM
SMILES: CCN1CCC(N(CC)C(=O)Cn2nc(-c3ccc(F)cc3)c(-c3ccncc3)c2C)C1 (stereo not shown) [Example B-2369]

IC50 [1, 3]: 3280 nM
IC50 [2, 6]: > 1000 nM
SMILES: O=C(NC(Cc1ccccc1)c1[nH]nc(-c2ccc(F)cc2)c1-c1ccncc1)c1cccc(Br)c1 (stereo not shown) [Example B-0806]

IC50 [1, 3]: 230 nM
IC50 [2, 7]: 590 nM
SMILES: CC(NS(=O)(=O)C=Cc1ccccc1)c1[nH]nc(-c2ccc(F)cc2)c1-c1ccncc1 (stereo not shown) [Example B-0565]

P38 alpha kinase % inhib @ conc. ([1]; @ 10.0 uM): 65.0% @
SMILES: CCCCCc1cccc(C(C)NC(=O)Cn2nc(-c3ccc(F)cc3)c(-c3ccncc3)c2C)c1 (stereo not shown) [Example B-2354]
U937 Cell % inhib @ conc. [2, 8]: 25.0% @

IC50 [1, 3]: 900 nM
IC50 ([2]; TNF production in human U937 cells stimulated with LPS): > 1000 nM
SMILES: CN(C(=O)NC(Cc1ccccc1)c1[nH]nc(-c2ccc(F)cc2)c1-c1ccncc1)c1ccccc1 (stereo not shown) [Example B-0776]

IC50 [1, 3]: 1900 nM
IC50 [2, 6]: > 1000 nM
SMILES: CNC(=O)CCC(NC(=O)c1ccccc1OC)c1[nH]nc(-c2ccc(F)cc2)c1-c1ccncc1 (stereo not shown) [Example B-0871]

IC50 [1, 3]: 610 nM
IC50 [2, 6]: > 1000 nM
SMILES: COc1ccccc1C(=O)NC(Cc1ccccc1)c1[nH]nc(-c2ccc(F)cc2)c1-c1ccncc1 (stereo not shown) [Example B-0843]

IC50 ([1]; in vitro P38-alpha kinase): < 100 nM
SMILES: Cc1noc(C)c1S(=O)(=O)NCCCc1[nH]nc(-c2ccc(F)cc2)c1-c1ccncc1 [Example B-1281]
inhibition at 1 µM [2, 5]: 85%

P38 alpha kinase % inhib @ conc. ([1]; @ 10.0 uM): 51.0% @
SMILES: Cc1c(-c2ccncc2)c(-c2ccc(F)cc2)nn1CC(=O)N1CCCN(C)CC1 [Example B-2382]
U937 Cell % inhib @ conc. [2, 8]: 24.0% @

P38 alpha kinase % inhib @ conc. ([1]; @ 100.0 uM): 50.0% @
SMILES: C=CCN(C(=O)Cn1nc(-c2ccc(F)cc2)c(-c2ccncc2)c1C)C1CCCCC1 [Example B-2373]
U937 Cell % inhib @ conc. [2, 8]: 6% @

IC50 [1, 3]: 3090 nM
IC50 [2, 6]: > 1000 nM
SMILES: O=C(NC(Cc1ccccc1)c1[nH]nc(-c2ccc(F)cc2)c1-c1ccncc1)c1ccno1 (stereo not shown) [Example B-0808]

IC50 [1, 3]: 2840 nM
SMILES: CC(NC(=O)c1cccc(Br)c1)c1[nH]nc(-c2ccc(F)cc2)c1-c1ccncc1 (stereo not shown) [Example B-0539]
inhibition at 1 µM ([2]; Homo sapiens, TNF production in human U937 cells stimulated with LPS): 21%

P38 alpha kinase % inhib @ conc. (uM) ([1]; @ 1.0 uM): 76.0% @
SMILES: COC(=O)c1ccccc1NC(=O)NCCc1[nH]nc(-c2ccc(F)cc2)c1-c1ccncc1 [Example B-0946]
U937 Cell % inhib @ conc. (uM) ([2]; @ 1.0 uM, TNF production, U937 cells stimulated with LPS): 31.0% @

IC50 [1, 3]: 470 nM
SMILES: Cc1ccccc1C(=O)NCCc1[nH]nc(-c2ccc(F)cc2)c1-c1ccncc1 [Example B-1120]
inhibition at 1 µM [2, 4]: 9%

IC50 [1, 3]: 2130 nM
SMILES: CNC(=O)CCC(NC(=O)c1ccncc1)c1[nH]nc(-c2ccc(F)cc2)c1-c1ccncc1 (stereo not shown) [Example B-0875]
inhibition at 1 µM [2, 4]: 8%

IC50 ([1]; in vitro P38-alpha kinase): 190 nM
SMILES: Cn1cnc(S(=O)(=O)N2CCC(c3[nH]nc(-c4ccc(F)cc4)c3-c3ccncc3)CC2)c1 [Example B-1434]
inhibition at 1 µM [2, 5]: 28%

IC50 ([1]; in vitro P38-alpha kinase): < 100 nM
SMILES: O=C(NCCCc1[nH]nc(-c2ccc(F)cc2)c1-c1ccncc1)NCCCN1CCCC1 [Example B-1318]
inhibition at 1 µM [2, 5]: 1%
